# Like-named read-outs stand apart in the source and are kept apart here.
# How the values were obtained:
# E. coli #G1880E = format: cell-based
# [1] = tested on: kanamycin resistant S. aureus; test: Checkerboard titration assay for synergy of honeybee venom with antibiotics (OD660 growth curves); format: cell-based
substance,measurement,setting,value
Polymyxin B,MEAN A660,"E. coli #G1880E; POLY B = 1.5, HBV = 0, T0",0.012
same,MEAN A660,"E. coli #G1880E; POLY B = 1.5, HBV = 0, T2",0.040
same,MEAN A660,"E. coli #G1880E; POLY B = 1.5, HBV = 0, T4",0.411
same,MEAN A660,"E. coli #G1880E; POLY B = 1.5, HBV = 0, T6",0.984
same,MEAN A660,"E. coli #G1880E; POLY B = 1.5, HBV = 0, T8",1.020
same,MEAN A660,"E. coli #G1880E; POLY B = 1.5, HBV = 0, T12",1.075
same,MEAN A660,"E. coli #G1880E; POLY B = 1.5, HBV = 0, T24",1.200
same,MEAN A660,"E. coli #G1880E; POLY B = 3, HBV = 0, T0",0.012
same,MEAN A660,"E. coli #G1880E; POLY B = 3, HBV = 0, T2",0.040
same,MEAN A660,"E. coli #G1880E; POLY B = 3, HBV = 0, T4",0.138
same,MEAN A660,"E. coli #G1880E; POLY B = 3, HBV = 0, T6",0.642
same,MEAN A660,"E. coli #G1880E; POLY B = 3, HBV = 0, T8",0.943
same,MEAN A660,"E. coli #G1880E; POLY B = 3, HBV = 0, T12",0.985
same,MEAN A660,"E. coli #G1880E; POLY B = 3, HBV = 0, T24",1.116
same,MEAN A660,"E. coli #G1880E; POLY B = 6, HBV = 0, T0",0.012
same,MEAN A660,"E. coli #G1880E; POLY B = 6, HBV = 0, T2",0.040
same,MEAN A660,"E. coli #G1880E; POLY B = 6, HBV = 0, T4",0.022
same,MEAN A660,"E. coli #G1880E; POLY B = 6, HBV = 0, T6",0.014
same,MEAN A660,"E. coli #G1880E; POLY B = 6, HBV = 0, T8",0.011
same,MEAN A660,"E. coli #G1880E; POLY B = 6, HBV = 0, T12",0.109
same,MEAN A660,"E. coli #G1880E; POLY B = 6, HBV = 0, T24",0.975
same,MEAN A660,"E. coli #G1880E; POLY B = 12, HBV = 0, T0",0.012
same,MEAN A660,"E. coli #G1880E; POLY B = 12, HBV = 0, T2",0.040
same,MEAN A660,"E. coli #G1880E; POLY B = 12, HBV = 0, T4",0.018
same,MEAN A660,"E. coli #G1880E; POLY B = 12, HBV = 0, T6",0.011
same,MEAN A660,"E. coli #G1880E; POLY B = 12, HBV = 0, T8",0.009
same,MEAN A660,"E. coli #G1880E; POLY B = 12, HBV = 0, T12",0.075
same,MEAN A660,"E. coli #G1880E; POLY B = 12, HBV = 0, T24",0.472
same,MEAN A660,"E. coli #G1880E; POLY B = 625, HBV = 0, T0",0.006
same,MEAN A660,"E. coli #G1880E; POLY B = 625, HBV = 0, T2",0.074
same,MEAN A660,"E. coli #G1880E; POLY B = 625, HBV = 0, T4",0.330
same,MEAN A660,"E. coli #G1880E; POLY B = 625, HBV = 0, T6",0.766
same,MEAN A660,"E. coli #G1880E; POLY B = 625, HBV = 0, T8",1.048
same,MEAN A660,"E. coli #G1880E; POLY B = 625, HBV = 0, T12",1.238
same,MEAN A660,"E. coli #G1880E; POLY B = 625, HBV = 0, T24",1.401
same,MEAN A660,"E. coli #G1880E; POLY B = 1250, HBV = 0, T0",0.006
same,MEAN A660,"E. coli #G1880E; POLY B = 1250, HBV = 0, T2",0.074
same,MEAN A660,"E. coli #G1880E; POLY B = 1250, HBV = 0, T4",0.159
same,MEAN A660,"E. coli #G1880E; POLY B = 1250, HBV = 0, T6",0.172
same,MEAN A660,"E. coli #G1880E; POLY B = 1250, HBV = 0, T8",0.259
same,MEAN A660,"E. coli #G1880E; POLY B = 1250, HBV = 0, T12",0.778
same,MEAN A660,"E. coli #G1880E; POLY B = 1250, HBV = 0, T24",1.362
same,MEAN A660,"E. coli #G1880E; POLY B = 2500, HBV = 0, T0",0.006
same,MEAN A660,"E. coli #G1880E; POLY B = 2500, HBV = 0, T2",0.074
same,MEAN A660,"E. coli #G1880E; POLY B = 2500, HBV = 0, T4",0.123
same,MEAN A660,"E. coli #G1880E; POLY B = 2500, HBV = 0, T6",0.109
same,MEAN A660,"E. coli #G1880E; POLY B = 2500, HBV = 0, T8",0.167
same,MEAN A660,"E. coli #G1880E; POLY B = 2500, HBV = 0, T12",0.075
same,MEAN A660,"E. coli #G1880E; POLY B = 2500, HBV = 0, T24",1.037
same,susceptibility to polymyxin B compared with the parent strain,[1],more susceptible to polymyxin B than the parent strain
same,MEAN A660,"[1]; POLY B = 12.5, HBV = 0, T0",0.009
same,MEAN A660,"[1]; POLY B = 12.5, HBV = 0, T2",0.068
same,MEAN A660,"[1]; POLY B = 12.5, HBV = 0, T4",0.266
same,MEAN A660,"[1]; POLY B = 12.5, HBV = 0, T6",0.640
same,MEAN A660,"[1]; POLY B = 12.5, HBV = 0, T8",0.826
same,MEAN A660,"[1]; POLY B = 12.5, HBV = 0, T12",0.976
same,MEAN A660,"[1]; POLY B = 12.5, HBV = 0, T24",0.962
same,MEAN A660,"[1]; POLY B = 25, HBV = 0, T0",0.009
same,MEAN A660,"[1]; POLY B = 25, HBV = 0, T2",0.068
same,MEAN A660,"[1]; POLY B = 25, HBV = 0, T4",0.243
same,MEAN A660,"[1]; POLY B = 25, HBV = 0, T6",0.629
same,MEAN A660,"[1]; POLY B = 25, HBV = 0, T8",0.835
same,MEAN A660,"[1]; POLY B = 25, HBV = 0, T12",1.008
same,MEAN A660,"[1]; POLY B = 25, HBV = 0, T24",1.048
same,MEAN A660,"[1]; POLY B = 50, HBV = 0, T0",0.009
same,MEAN A660,"[1]; POLY B = 50, HBV = 0, T2",0.068
